Data reported in the supplement of paper PMC13380429.

Columns and labels:
Settings in all cases: 72 h
Calu-3 [1] = assay: relative viability EC50 (midpoint between 100% and the lowest measured viability); higher = less toxic
HepG2 [2] = assay: as above
U2OS [3] = assay: as above
Caco-2 [4] = assay: as above
Vero E6 [5] = assay: as above
Calu-3 [6] = assay: cell viability relative to DMSO; higher = less toxic
HepG2 [7] = assay: as above
U2OS [8] = assay: as above
Caco-2 [9] = assay: as above
Vero E6 [10] = assay: as above
Calu-3 [11] = assay: drug sensitivity score (DSS) for viability; higher = more toxic; extreme values may be limits of the assay
HepG2 [12] = assay: as above
U2OS [13] = assay: as above
Caco-2 [14] = assay: as above
Vero E6 [15] = assay: as above

Structure (SMILES)	relative viability EC50 (Calu-3 [1])	relative viability EC50 (HepG2 [2])	relative viability EC50 (U2OS [3])	relative viability EC50 (Caco-2 [4])	relative viability EC50 (Vero E6 [5])	cell viability (Calu-3 [6]; 1 nM)	cell viability (Calu-3 [6]; 10 nM)	cell viability (Calu-3 [6]; 100 nM)	cell viability (Calu-3 [6]; 1000 nM)	cell viability (Calu-3 [6]; 10000 nM)	cell viability (HepG2 [7]; 1 nM)	cell viability (HepG2 [7]; 10 nM)	cell viability (HepG2 [7]; 100 nM)	cell viability (HepG2 [7]; 1000 nM)	cell viability (HepG2 [7]; 10000 nM)	cell viability (U2OS [8]; 1 nM)	cell viability (U2OS [8]; 10 nM)	cell viability (U2OS [8]; 100 nM)	cell viability (U2OS [8]; 1000 nM)	cell viability (U2OS [8]; 10000 nM)	cell viability (Caco-2 [9]; 1 nM)	cell viability (Caco-2 [9]; 10 nM)	cell viability (Caco-2 [9]; 100 nM)	cell viability (Caco-2 [9]; 1000 nM)	cell viability (Caco-2 [9]; 10000 nM)	cell viability (Vero E6 [10]; 1 nM)	cell viability (Vero E6 [10]; 10 nM)	cell viability (Vero E6 [10]; 100 nM)	cell viability (Vero E6 [10]; 1000 nM)	cell viability (Vero E6 [10]; 10000 nM)	drug sensitivity score (Calu-3 [11])	drug sensitivity score (HepG2 [12])	drug sensitivity score (U2OS [13])	drug sensitivity score (Caco-2 [14])	drug sensitivity score (Vero E6 [15])
Cc1cc(C)c2c(c1)[C@@H](N(Cc1cc(C(F)(F)F)cc(C(F)(F)F)c1)c1nnn(C)n1)CCCN2C[C@H]1CC[C@H](C(=O)O)CC1 [evacetrapib]	> 10 µM	> 10 µM	> 10 µM	> 10 µM	> 10 µM	97%	88.9%	100%	96.9%	89.9%	97%	100%	95.6%	99.5%	104%	98.1%	100%	97.5%	103%	91.9%	90.6%	94.9%	108%	99.8%	97.3%	96.1%	97.3%	95.7%	93.3%	102%	0	0	0	0	0
CCOC(=O)C1=C(C)NC(C)=C(C(=O)OC)C1c1cccc(Cl)c1Cl (stereo not given) [felodipine]	> 10 µM	> 10 µM	> 10 µM	> 10 µM	> 10 µM	89.8%	101%	111%	98.2%	102%	105%	107%	99.5%	99.2%	96.9%	106%	96.7%	99.7%	97.4%	100%	101%	102%	104%	91.8%	99%	99.2%	103%	101%	103%	94.7%	0	0	0	0	0
O=C1NCC2(CCN(CCc3ccccc3)CC2)O1 [fenspiride]	> 10 µM	> 10 µM	> 10 µM	> 10 µM	> 10 µM	96.6%	92.5%	85%	92.3%	98.9%	96.7%	107%	100%	112%	103%	105%	97.7%	101%	99.2%	108%	99%	103%	91.2%	101%	104%	94.9%	98.3%	97.9%	103%	103%	0	0	0	0	0
CC1(C)OC(=O)C(OCC2CC2)=C1c1ccc(S(C)(=O)=O)cc1 [firocoxib]	> 10 µM	> 10 µM	> 10 µM	> 10 µM	> 10 µM	95.9%	93.2%	95.6%	110%	104%	105%	97.7%	104%	103%	101%	96.7%	107%	95.3%	97.2%	102%	98.3%	91.8%	84.1%	83.4%	86.5%	100%	101%	99.2%	96.4%	98.2%	0	0	0	3.5	0
O=C1NC(c2ccccc2)(c2ccccc2)C(=O)N1COP(=O)(O)O [fosphenytoin]	> 10 µM	> 10 µM	> 10 µM	> 10 µM	> 10 µM	89.4%	97.3%	90.4%	87.7%	102%	97.1%	92.7%	100%	109%	91.4%	98%	98.5%	101%	95.1%	102%	97.6%	102%	86.3%	104%	105%	110%	84.9%	102%	106%	94.6%	0	0	0	0	0
O=C1OC(CN2CCOCC2)CN1/N=C/c1ccc([N+](=O)[O-])o1 (stereo not given) [furaltadone]	> 10 µM	> 10 µM	> 10 µM	> 10 µM	> 10 µM	95.7%	93.6%	94.4%	103%	104%	96.4%	93.3%	92.8%	81.7%	82.5%	99.8%	99.3%	95.4%	106%	95.1%	96.5%	87%	79.7%	99.8%	82.3%	108%	94%	103%	109%	102%	0	2.1	0	0	0
CC(=O)[C@H]1CC[C@H]2[C@@H]3CC[C@H]4C[C@](C)(O)CC[C@]4(C)[C@H]3CC[C@]12C [ganaxolone]	> 10 µM	> 10 µM	> 10 µM	> 10 µM	> 10 µM	96.7%	94%	98.5%	98.4%	102%	93.4%	108%	94.2%	102%	101%	98.8%	99.4%	101%	100%	100%	95%	98.7%	98.2%	98.7%	101%	89.8%	103%	91.2%	95.7%	106%	0	0	0	0	0
NCC(=O)N[C@@H](CCC(N)=O)C(=O)O [gly-gln]	> 10 µM	> 10 µM	> 10 µM	> 10 µM	> 10 µM	95.9%	91.9%	92.7%	99.2%	109%	86.6%	100%	91.7%	106%	104%	99.2%	95.4%	96.7%	98.3%	97.1%	95.5%	92.6%	92.9%	102%	97.7%	91.8%	101%	91.7%	94.2%	107%	0	0	0	0	0
COc1ccc([C@@H]2CC(=O)c3c(O)cc(O[C@@H]4O[C@H](CO[C@@H]5O[C@@H](C)[C@H](O)[C@@H](O)[C@H]5O)[C@@H](O)[C@H](O)[C@H]4O)cc3O2)cc1O [hesperidin]	> 10 µM	> 10 µM	> 10 µM	> 10 µM	> 10 µM	89.1%	86.3%	91.6%	97.9%	101%	99%	109%	99.1%	103%	83.7%	97.5%	97.9%	102%	99.7%	104%	98.3%	103%	97.5%	88.1%	98.9%	103%	102%	99%	98.5%	99.8%	0	0.2	0	0	0
CCCCCCc1ccc(O)cc1O [hexylresorcinol]	> 10 µM	> 10 µM	> 10 µM	> 10 µM	> 10 µM	91%	109%	104%	97.8%	99.7%	105%	98.7%	107%	93.7%	94%	98.3%	101%	97.5%	104%	99.9%	95.9%	98.5%	98.4%	100%	94.9%	102%	101%	106%	103%	96.7%	0	0	0	0	0
CC(=O)OCC(=O)[C@@]1(O)CC[C@H]2[C@@H]3CCC4=CC(=O)CC[C@]4(C)[C@H]3[C@@H](O)C[C@@]21C [hydrocortisone-acetate]	> 10 µM	> 10 µM	> 10 µM	> 10 µM	> 10 µM	93.8%	102%	97.9%	96.8%	89.2%	101%	105%	105%	99.5%	103%	94.6%	97%	93%	97.7%	98.6%	92.6%	94.4%	106%	97.6%	107%	95.7%	99.4%	96.2%	95.4%	101%	0	0	0	0	0
O=c1[nH]cnc2nc[nH]c12 [hypoxanthine]	> 10 µM	> 10 µM	> 10 µM	> 10 µM	> 10 µM	98.1%	90.3%	102%	95.4%	102%	100%	102%	97.7%	95.5%	94%	98%	97.8%	102%	102%	113%	101%	87%	102%	103%	112%	105%	105%	102%	104%	96.5%	0	0	0	0	0
OC[C@H]1O[C@@H](c2ccc(F)c(Cc3cc4ccccc4s3)c2)[C@H](O)[C@@H](O)[C@@H]1O [ipragliflozin-L-proline]	> 10 µM	> 10 µM	> 10 µM	> 10 µM	> 10 µM	92.4%	108%	98%	110%	100%	108%	101%	105%	96.3%	111%	99.2%	98.7%	99.4%	104%	99%	108%	99.8%	100%	101%	100%	110%	104%	105%	99.4%	103%	0	0	0	0	0
CC(=O)OCC(=O)[C@@]1(O)CC[C@H]2[C@@H]3CCC4=CC(=O)C=C[C@]4(C)[C@@]3(F)[C@@H](O)C[C@@]21C [isoflupredone-acetate]	> 10 µM	> 10 µM	> 10 µM	> 10 µM	> 10 µM	92.6%	97.2%	82.4%	93.2%	107%	102%	92.3%	102%	99.2%	104%	96.4%	98.2%	94.5%	99.4%	105%	104%	96.9%	97%	103%	102%	100%	101%	96%	94.5%	107%	0	0	0	0	0
